The source of these data is patent US6673795B2, “Pyrimidine, pyrazine and triazane derivatives” (Hoffmann-La Roche Inc., priority 2001, dated 2004).

What is called IC50 is the midpoint of a concentration-inhibition curve. Read a high IC50 as weaker potency in that assay. A word on the melting point: it is the temperature, or range, at which the solid turns liquid.

One data set has as its target T1, rat mGluR1a receptor (Rattus norvegicus, UniProt P23385).
T1 construct: expressed in transfected cells; host or cells: HEK 293 cells, transient transfection; membrane preparation
The experiment in a line: Binding assay for the characterization of mGluR 1 antagonistic properties (tritiated radioligand displacement). The note with it: membranes of HEK 293 cells transiently transfected with rat mGluR1a; tritiated 1-ethyl-2-methyl-6-oxo-4-(1,1,2-tritritio-1,2,4,5-tetrahydro-benzo[d]azepin-3-yl)-1,6-dihydro-pyrimidine-5-carbonitrile at 3 nM; 1 hour at room temperature. The procedure: Binding Assay for the Characterization of mGluR 1 Antagonistic Properties
Binding assay with tritiated 1-ethyl-2-methyl-6-oxo-4-(1,1,2-tritritio-1,2,4,5-tetrahydro-benzo[d]azepin-3-yl)-1,6-dihydro-pyrimidine-5-carbonitrile: HEK 293 cells were transiently transfected with the rat mGluR^1 a receptor. The cells were collected and washed 3 times with PBS. The cell pellets were frozen at −80° C. Membranes were prepared from HEK 293 cells transfected with the rat mGluR^1 a receptor and used in the binding experiments at 10 μg proteins per assay after resuspension in a HEPES NaOH 20 mM, pH=7.4 binding buffer. 1-Ethyl-2-methyl-6-oxo-4-(1,1,2-tritritio-1,2,4,5-tetrahydro-benzo [d]azepin-3-yl)-1,6-dihydro-pyrimidine-5-carbonitrile (S.A 33.4 Ci/mmol) was used at 3 nM final concentration. The incubation with variable concentrations of potential inhibitors was performed for 1 hour at room temperature, the incubate was then filtered onto GF/B glass fiber filter preincubated 1 hour in PEI 0,1% and washed 3 times with 1 ml of cold binding buffer. The radioactivity retained on the unifilter 96 was counted using a Topcount β counter. After correction for non specific binding the data were normalized and the IC50 value calculated using a 4 parameters logistic equation which was fitted to the inhibition curve.

T1 sequence (P23385 19-1199): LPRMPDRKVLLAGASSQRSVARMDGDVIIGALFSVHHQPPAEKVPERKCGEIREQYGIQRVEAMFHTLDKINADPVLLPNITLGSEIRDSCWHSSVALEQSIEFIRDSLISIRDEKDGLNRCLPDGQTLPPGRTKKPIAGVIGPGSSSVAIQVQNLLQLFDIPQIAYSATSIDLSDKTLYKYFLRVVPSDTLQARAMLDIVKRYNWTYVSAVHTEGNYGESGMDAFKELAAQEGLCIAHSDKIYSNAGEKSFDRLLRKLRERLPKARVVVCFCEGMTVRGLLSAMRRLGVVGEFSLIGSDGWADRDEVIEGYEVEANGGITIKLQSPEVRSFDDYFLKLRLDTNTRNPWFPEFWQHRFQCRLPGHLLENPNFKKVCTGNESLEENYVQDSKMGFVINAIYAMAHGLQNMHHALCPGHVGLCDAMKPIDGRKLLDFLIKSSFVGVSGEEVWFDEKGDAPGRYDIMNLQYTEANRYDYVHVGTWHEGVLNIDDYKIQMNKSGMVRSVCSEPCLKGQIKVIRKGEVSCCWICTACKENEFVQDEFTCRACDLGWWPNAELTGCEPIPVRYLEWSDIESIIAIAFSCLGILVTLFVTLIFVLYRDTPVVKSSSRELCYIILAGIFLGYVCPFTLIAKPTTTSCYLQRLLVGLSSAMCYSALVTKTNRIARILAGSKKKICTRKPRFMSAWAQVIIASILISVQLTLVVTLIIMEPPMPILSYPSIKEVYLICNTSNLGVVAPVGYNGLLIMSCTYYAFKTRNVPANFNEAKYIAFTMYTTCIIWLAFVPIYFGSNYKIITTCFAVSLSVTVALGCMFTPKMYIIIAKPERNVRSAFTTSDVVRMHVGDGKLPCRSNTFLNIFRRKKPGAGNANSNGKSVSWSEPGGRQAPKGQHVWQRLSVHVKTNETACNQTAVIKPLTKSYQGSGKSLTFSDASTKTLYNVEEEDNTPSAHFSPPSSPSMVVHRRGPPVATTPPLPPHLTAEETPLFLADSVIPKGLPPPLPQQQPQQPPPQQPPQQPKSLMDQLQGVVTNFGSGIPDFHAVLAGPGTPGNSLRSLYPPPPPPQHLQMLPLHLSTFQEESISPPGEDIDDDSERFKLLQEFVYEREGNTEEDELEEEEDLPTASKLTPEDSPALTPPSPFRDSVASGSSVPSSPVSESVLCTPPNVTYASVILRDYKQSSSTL

As for `CCOc1nc(C)nc(N2CCN(c3ccc(F)cc3)CC2)c1[N+](=O)[O-]` [Example 10-2, 4-ethoxy-6-[4-(4-fluoro-phenyl)-piperazin-1-yl]-2-methyl-5-nitro-pyrimidine], the melting point is 116 to 119 °C. Further, at rat mGluR1a receptor, the IC50 worked out at 0.18 µM.
As for `N#Cc1ncc(NCCO)nc1N1CCN(c2ccc(F)cc2)CC1` [Example 83, 4-(4-Fluoro-phenyl)-6′-(2-hydroxy-ethylamino)-3,4,5,6-tetrahydro-2H-[1,2′]bipyrazinyl-3′-carbonitrile], the melting point was in the range of 149 to 151 °C. Further, the IC50 at rat mGluR1a receptor was 1 µM.
`Cc1nc(OCC(F)(F)F)c([N+](=O)[O-])c(N2CCC(c3ccccc3)CC2)n1` [Example 9-2, 2-methyl-5-nitro-4-(4-phenyl-piperidin-1-yl)-6-(2,2,2-trifluoro-ethoxy)-pyrimidine] registered a melting point of 114 to 117 °C.
In turn, `Cc1nc(OCC(F)(F)F)c([N+](=O)[O-])c(N2CCN(c3ccc(F)cc3)CC2)n1` [Example 12-2, 4-[4-(4-fluoro-phenyl)-piperazin-1-yl]-2-methyl-5-nitro-6-(2,2,2-trifluoro-ethoxy)-pyrimidine] returned a melting point of 92 to 95 °C.
Regarding `CCc1nc(C#N)c(N2CCN(c3ccccc3)CC2)nc1C` [Example 75-1, 5′-ethyl-6′-methyl-4-phenyl-3,4,5,6-tetrahydro-2H-[1,2′]bipyrazinyl-3′-carbonitrile], the melting point lay in the range of 99 to 101 °C. Besides, the IC50 at rat mGluR1a receptor was found to be 0.017 µM.
`N#Cc1ncc(NCCO)nc1N1CCC(c2ccc(F)cc2)CC1` [Example 82, 3-[4-(4-Fluoro-phenyl)-piperidin-1-yl]-5-(2-hydroxy-ethylamino)-pyrazine-2-carbonitrile] had a melting point of 155 to 158 °C.
`Cc1nc(N2CCN(c3ccc(F)cc3)CC2)c([N+](=O)[O-])c(=O)[nH]1` [Example 1, 6-[4-(4-Fluoro-phenyl)-piperazin-1-yl]-2-methyl-5-nitro-3H-pyrimidin-4-one]: the melting point is > 250 °C (dec.). This molecule displayed an IC50 on rat mGluR1a receptor of 0.81 µM.
The corresponding values for `Cc1nc(N2CCC(c3ccc(F)cc3)CC2)c([N+](=O)[O-])c(=O)n1CCCCO` [Example 18, 6-[4-(4-Fluoro-phenyl)-piperidin-1-yl]-3-(4-hydroxy-butyl)-2-methyl-5-nitro-3H-pyrimidin-4-one] are 154 to 156 °C and 0.28 µM.
The corresponding values for `Cc1nc(N2CCC(c3ccccc3)CC2)c([N+](=O)[O-])c(=O)[nH]1` [Example 5, 2-Methyl-5-nitro-6-(4-phenyl-piperidin-1-yl)-3H-pyrimidin-4-one] are 210 to 213 °C and 0.063 µM.
As to `Cc1nc(N2CCC(c3ccc(F)cc3)CC2)c([N+](=O)[O-])c(=O)n1CC#N` [Example 16, {4-[4-(4-Fluoro-phenyl)-piperidin-1-yl]-2-methyl-5-nitro-6-oxo-6H-pyrimidin-1-yl}-acetonitrile], the melting point is 213 to 215 °C (dec.).
Take `Cc1nc(N2CCC(c3ccc(F)cc3)CC2)c([N+](=O)[O-])c(=O)[nH]1` [Example 7, 6-[4-(4-Fluoro-phenyl)-piperidin-1-yl]-2-methyl-5-nitro-3H-pyrimidin-4-one]: the melting point was 218 to 221 °C (dec.).
On to `COCCOc1nc(C)nc(N2CCC(c3ccc(F)cc3)CC2)c1[N+](=O)[O-]` [Example 14-2, 4-[4-(4-fluoro-phenyl)-piperidin-1-yl]-6-(2-methoxy-ethoxy)-2-methyl-5-nitro-pyrimidine], for which the melting point lay within 45 to 48 °C.
In the case of `Cc1nc(N2CC=C(c3ccccc3)CC2)c([N+](=O)[O-])c(=O)[nH]1` [Example 6, 2-Methyl-5-nitro-6-(4-phenyl-3,6-dihydro-2H-pyridin-1-yl)-3H-pyrimidin-4-one], the melting point is 212 to 216 °C (dec.).
For the molecule `Cc1nc(N2CCN(c3ccccc3)CC2)c([N+](=O)[O-])c(=O)[nH]1` [Example 4, 2-Methyl-5-nitro-6-(4-phenyl-piperazin-1-yl)-3H-pyrimidin-4-one], the melting point was > 250 °C (dec.).
